Patent US20020054880A1, “Anti-inflammatory, tolerogenic and immunoinhibiting properties of carbohydrate binding-peptides” (priority 1992, published 2002)
Where two headings read alike, the source gives them in different places.

Legend:
[1] = biological target: αNeuAc(2-3)βGal(1-3)βGlcNAc-BSA (1-4) αFuc (Bos taurus, UniProt P02769); settings: SLe^a(C19.9); conjugate 50 μg/mL; 0.5 μg SPYGRC-b, 1 hour
Experimental: (§1) Binding assays were carried out essentially as described above using microtiter wells that were coated with 50 μl of BSA glycoconjugate (50 μg/ml) in 50 mM sodium phosphate buffer (pH 6.8) containing 5 mM MgCl2 nd 15 mM NaN3 for 16 hours at 4° C. The solution was removed by aspiration and replaced with 100 μl of 1% BSA in PBS containing 0.05% Tween 20 (PBST) and incubated at room temperature for an additional 2-3 hours. […] After incubating for 1 hour, the binding reaction was stopped by aspirating the solutions and the plate was washed with PBST (4×300 μl). Avidin-peroxidase (100 μl of a 1/3000 dilution of a 1 mg/ml solution in PBST) was added and incubated for an additional 1 hour. After washing the wells as described above, the substrate solution (1 mM ABTS in 5 mM citrate buffer, pH 4.2, containing 0.1% hydrogen peroxide, v/v) was added and the plates were incubated for 30 minutes. Binding assays for each BSA conjugate were done in triplicate and background binding was measured in wells coated with BSA only.

[2] = biological target: αNeuAc(2-3)βGal(1-4)βGlcNAc-BSA (1-3) αFuc (Bos taurus, UniProt P02769); settings: SLe^x; conjugate 50 μg/mL; 0.5 μg SPYGRC-b, 1 hour
Experimental: as §1

[3] = biological target: αNeuAc(2-3)βGal(1-3)βGlcNAc-BSA (Bos taurus, UniProt P02769); settings: SLe^c; conjugate 50 μg/mL; 0.5 μg SPYGRC-b, 1 hour
Experimental: as §1

[4] = biological target: αNeuAc(2-3)βGal(1-4)βGlcNAc-BSA (Bos taurus, UniProt P02769); settings: conjugate 50 μg/mL, 0.5 μg SPYGRC-b, 1 hour
Experimental: as §1

[5] = system: pertussis toxin binding to Chinese Hamster ovary (CHO) cell; assay: CHO cell neutralization of pertussis toxin (cell clumping); format: cell-based; settings: PT 2.4 ng/ml, peptide and PT 1 hour, triplicate
Experimental: Confluent monolayers of CHO cells were lifted from plastic tissue culture flasks with 0.25% trypsin and suspended at a concentration of 5×10^4 cells/ml in Ham's F12 media containing 10% fetal bovine serum (FBS). 100 μl of the cell suspension was added to 96 well tissue culture plates and were allowed to establish contact with the plastic for 24 to 48 hours. The expended media was then removed and filtered-sterilized peptide 5-fold dilutions ranging in concentration from 300 to 30 femptogram per ml (80 μl) in Ham' F12 media containing FBS were added to the CHO cells. […] The incubation mixtures were gently mixed and incubated at 37° C. for 1 hour in a CO2 incubator. The incubation mixtures were then removed and replaced with fresh media. The tissue culture plates were then incubated for 24 hours at 37° C., fixed with 100% methanol, and stained with Geimsa stain. Control experiments were done in the absence of peptide alone or in the absence of PT. All determinations were done in triplicate. […] The results reported in Table VIII show the maximum peptide concentration required to cause a 50% reduction in CHO cell clumping.

[6] = system: Balb/c mice; assay: Persistence of suppression of DTH response on OVA re-challenge at 2 weeks; format: in vivo; settings: mice treated as in Example 11, re-challenged at 2 weeks; FIG. 3
Description: Identical groups of mice treated with the peptides in Example 11 above, were re-challenged with OVA antigen 2 weeks after primary immunization.

[7] = biological target: T1, ACS2P1-biotin binding to fetuin (Bos taurus, UniProt P12763); assay: biochemical; settings: peptide μM: ACS2P1 4.1, S2P2 42.5, SPYGRC 5520, S2P3 22.4, S2P4 6.0, S2P6 319, S3P1 1142, S3P2 934, S3P3 16.1, S3P4 6.4, S3P5 22.5; ACS2P1-biotin 0.1 μg; − inhibition, + enhancement
T1 construct: purchased Sigma Chemical Company
T1 sequence (P12763 19-359): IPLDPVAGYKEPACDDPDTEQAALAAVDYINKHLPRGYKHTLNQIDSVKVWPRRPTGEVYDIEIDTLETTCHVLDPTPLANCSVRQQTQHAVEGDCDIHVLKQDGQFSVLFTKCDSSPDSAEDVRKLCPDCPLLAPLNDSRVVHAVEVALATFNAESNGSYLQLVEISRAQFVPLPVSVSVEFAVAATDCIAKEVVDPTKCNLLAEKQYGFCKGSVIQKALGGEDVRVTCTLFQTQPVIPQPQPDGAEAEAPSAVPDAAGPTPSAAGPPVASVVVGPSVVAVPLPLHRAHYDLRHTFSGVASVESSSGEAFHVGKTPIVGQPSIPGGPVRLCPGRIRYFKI

[8] = biological target: T2, MAL-biotin binding to fetuin (Bos taurus, UniProt P12763); assay: MAL-biotin binding to fetuin, binding inhibition assay; set-up: species or system Maackia amurensis; settings: + enhancement, − inhibition
T2 construct: purchased Sigma Chemical Company (fetuin); Boehringer Mannheim (MAL-biotin)
T2 sequence (P12763 19-359): T1 sequence (P12763 19-359)
Experimental: (§2) Peptides ranging in concentration from 0.5 to 4.5 mg/ml in PBS (40 μl) were added to each well and PT-biotin (10 μl containing 10 ng in PBS) was then added to the microtiter wells. […] Horseradish peroxidase-conjugated avidin (100 μl, 1/3000 dilution in PBST to a concentration of 0.3 μg/ml) was then added to the wells, and the plates were incubated at ambient temperature for 1 hour. […] Color development was recorded at 405 nm using a Titertek Multiskan MC plate reader. […] Binding assays for each peptide were done in duplicate. Binding inhibition experiments utilizing SNA-, WGA-, and MAL-biotin were performed as described above using 10 ng of each biotinylated lectin in PBS.
(§3) Binding assays for each inhibitor concentration were done at least in duplicate, and the average value varied less than 15%.

[9] = biological target: T3, PT-biotin binding to asialofetuin (Bos taurus, UniProt P12763); assay: PT-biotin binding to asialofetuin, binding inhibition assay; set-up: species or system Bordetella pertussis; settings: peptide mg/mL: S2PL 1.2, ACS2P1 1.0, S2P2 1.1, S2P3 0.51, S2P4 0.98, S2P6 0.85, S3P1 3.2, S3P2 3.1, S3P3 4.5, S3P4 3.3, S3P5 0.48, SPYGRC 4.4; + enhancement, − inhibition
T3 construct: made in house
T3 sequence (P12763 19-359): T1 sequence (P12763 19-359)
Experimental: as §2, §3

[10] = biological target: T4, ACS2P1-biotin binding to asialofetuin (Bos taurus, UniProt P12763); assay: Screening of S2 and S3 peptides for inhibition of ACS2P1-biotin binding to asialofetuin; settings: peptide μM: ACS2P1 4.1, S2P2 42.5, SPYGRC 5520, S2P3 22.4, S2P4 6.0, S2P6 319, S3P1 1142, S3P2 934, S3P3 16.1, S3P4 6.4, S3P5 22.5; ACS2P1-biotin 0.1 μg; − inhibition, + enhancement
T4 construct: made in house
T4 sequence (P12763 19-359): T1 sequence (P12763 19-359)

[11] = biological target: T5, WGA-biotin binding to fetuin (Bos taurus, UniProt P12763); assay: biochemical; settings: + enhancement, − inhibition
T5 sequence (P12763 19-359): T1 sequence (P12763 19-359)
Experimental: (§4) The solution was removed by aspiration and replaced with 100 μl of 1% BSA in PBS containing 0.05% Tween 20 (PBST). After incubation for 2-4 hours at room temperature, the microtiter wells were washed four times with 300 μl of PBST. Peptides ranging in concentration from 0.5 to 4.5 mg/ml in PBS (40 μl) were added to each well and PT-biotin (10 μl containing 10 ng in PBS) was then added to the microtiter wells. After incubating for 1 hour, the binding reaction was stopped by aspirating the solutions and the plate was washed with PBST (300 μl). Horseradish peroxidase-conjugated avidin (100 μl, 1/3000 dilution in PBST to a concentration of 0.3 μg/ml) was then added to the wells, and the plates were incubated at ambient temperature for 1 hour. After washing the wells as described above, the substrate solution [1 mM ABTS in 5 mM citrate buffer, pH 4.2, containing 0.1% hydrogen peroxide, v/v) was added and the plates were incubated for 30 minutes. Color development was recorded at 405 nm using a Titertek Multiskan MC plate reader. Maximum binding was determined in the absence of peptide, and background binding was measured in wells coated with BSA only. Binding assays for each peptide were done in duplicate. Binding inhibition experiments utilizing SNA-, WGA-, and MAL-biotin were performed as described above using 10 ng of each biotinylated lectin in PBS.

[12] = biological target: T6, SNA-biotin binding to fetuin (Bos taurus, UniProt P12763); assay: biochemical; settings: + enhancement, − inhibition
T6 sequence (P12763 19-359): T1 sequence (P12763 19-359)
Experimental: as §4

[13] = biological target: T7, PT-biotin binding to fetuin (Bos taurus, UniProt P12763); assay: PT-biotin binding to fetuin, binding inhibition assay; set-up: species or system Bordetella pertussis; settings: + enhancement, − inhibition
T7 construct: purchased Sigma Chemical Company (fetuin); Connaught Center for Biotechnology Research (PT)
T7 sequence (P12763 19-359): T1 sequence (P12763 19-359)
Experimental: as §2, §3

[14] = system: Balb/c mice; assay: DTH inflammatory response, mouse footpad swelling assay; format: in vivo; settings: 100 μg peptide into the tail vein 5 hours after challenge with 20 μg OVA; FIG. 2
Experimental: DTH inflammatory responses were measured using the mouse footpad swelling assay as described by Smith and Ziola^64. Briefly, groups of Balb/c mice (about 19-20 grams each) were immunized with 100 μg of the OVA antigen containing 20μg of the adjuvant (DDA—dimethyl-dioctadecylammonium bromide) which also induces a strong inflammatory DTH response. Seven days later, each group of mice was footpad-challenged with 20 μg of the OVA antigen (without adjuvant). The resulting inflammatory footpad swelling was measured with a Mitutoyo Engineering micrometer 24 hours after challenge.
To assess the effect of different peptides on the inflammatory DTH response, groups of mice received 100 μg of the following peptides- ACS2P1 (2275), SPYGRC (2283), and S3P9a. These peptides were injected as a solution into the tail vein, 5 hours after challenge. Control groups were left untreated or received 100 μL of phosphate-buffered saline (PBS).

[15] = peptide mg/mL: S2PL 1.2, ACS2P1 1.0, S2(14-2.3) 1.0, S2P2 1.1, S2P3 0.51, S2P4 0.98, S2P6 0.85, S3P1 3.2, S3P2 3.1, S3P3 4.5, S3P4 3.3, S3P5 0.48, S3P9a 1.7, SPYGRC 4.4, S2(WGA) 1.0, WGA (62-73) 1.0

Sequence of αNeuAc(2-3)βGal(1-4)βGlcNAc-BSA (P02769 25-607): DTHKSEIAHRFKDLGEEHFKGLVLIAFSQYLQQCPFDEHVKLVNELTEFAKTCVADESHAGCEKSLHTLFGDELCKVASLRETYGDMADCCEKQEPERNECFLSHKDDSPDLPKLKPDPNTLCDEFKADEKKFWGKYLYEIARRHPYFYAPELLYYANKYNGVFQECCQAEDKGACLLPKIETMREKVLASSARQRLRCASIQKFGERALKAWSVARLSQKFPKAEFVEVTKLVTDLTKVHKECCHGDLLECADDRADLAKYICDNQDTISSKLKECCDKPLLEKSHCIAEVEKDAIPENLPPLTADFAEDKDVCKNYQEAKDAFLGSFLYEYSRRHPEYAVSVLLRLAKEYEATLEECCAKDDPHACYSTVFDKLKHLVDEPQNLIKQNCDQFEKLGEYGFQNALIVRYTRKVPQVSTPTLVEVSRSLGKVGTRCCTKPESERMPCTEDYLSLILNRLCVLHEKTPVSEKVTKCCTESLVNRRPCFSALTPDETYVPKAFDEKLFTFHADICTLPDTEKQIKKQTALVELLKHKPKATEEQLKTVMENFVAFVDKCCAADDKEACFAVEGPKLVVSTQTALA
Sequence of αNeuAc(2-3)βGal(1-4)βGlcNAc-BSA (1-3) αFuc (P02769 25-607): as above
Sequence of αNeuAc(2-3)βGal(1-3)βGlcNAc-BSA (1-4) αFuc (P02769 25-607): as above
Sequence of αNeuAc(2-3)βGal(1-3)βGlcNAc-BSA (P02769 25-607): as above

Substance	% Binding Relative to Fetuin of SPYGRC-b (n = 3) [1] [%]	% Binding Relative to Fetuin of SPYGRC-b (n = 3) [2] [%]	% Binding Relative to Fetuin of SPYGRC-b (n = 3) [3] [%]	% Binding Relative to Fetuin of SPYGRC-b (n = 3) ([4]; SLacNAc (table row r10)) [%]	% Binding Relative to Fetuin of SPYGRC-b (n = 3) ([4]; SLacNAc (table row r12)) [%]	Maximal Inhibitory Concentration for Greater than 50% Inhibition [5] [pg/mL]	DTH response (footpad swelling) on later re-challenge with OVA antigen, in words [6]	Percent Change in Binding Activity Fetuin [7] [%]	% Changes in Binding Activity, MAL-5 to fetuin ([8]; SPYGRC peptide 4.4 mg/ml) [%]	Percent Changes in Binding Activity MAL/fetuin [8, 15] [%]	Percent Changes in Binding Activity PT/asialo-fetuin [9]	Percent Change in Binding Activity Asialofetuin [10] [%]	% Changes in Binding Activity, WGA-b to fetuin ([11]; SPYGRC peptide 4.4 mg/ml)	Percent Changes in Binding Activity WGA/fetuin ([11]; peptide mg/mL: S2PL 1.2, ACS2P1 1.0, S2(14-2.3) 1.0, S2P2 1.1, S2P3 0.51, S2P4 0.98, S2P6 0.85, S3P1 3.2, S3P2 3.1, S3P3 4.5, S3P4 3.3, S3P5 0.48, SPYGRC 4.4, S2(WGA) 1.0, WGA (62-73) 1.0)	% Changes in Binding Activity, SNA-b to fetuin ([12]; SPYGRC peptide 4.4 mg/ml) [%]	Percent Changes in Binding Activity SNA/fetuin [12, 15] [%]	% Changes in Binding Activity, PT-b to fetuin ([13]; SPYGRC peptide 4.4 mg/ml)	Percent Changes in Binding Activity PT/fetuin [13, 15]	effect on DTH inflammatory response (footpad swelling 24 hours after challenge), in words [14]
BIOTIN-SPYGRC-CO—NH2 [SPYGRC-b]	103 ± 8	120 ± 4	97 ± 12	120 ± 7	122 ± 5	–	–	–	–	–	–	–	–	–	–	–	–	–	–
SPYGRC-CO—NH2	–	–	–	–	–	480	reduced immune response	−24 ± 2	−16 ± 0	−16 ± 0	+7 ± 9%	−54 ± 3	+7 + 3%	+7 ± 3%	−2 ± 1	−2 ± 2	+34 ± 2%	+34 ± 2%	effective in reducing a DTH response in mice
